Experiments:
Jurkat cells = assay: Cathepsin labeling in intact Jurkat cells that lack mature CTSK, fluorescent SDS-PAGE; type: cell-based, human; conditions: probe 5 µM, up to 24 h
Experimental: To further corroborate the selectivity of GD32, we tested the labeling of Jurkat cells, which lack mature CTSK. Intact cells were incubated with the probe for different durations up to 24 h before they were lysed and analyzed by fluorescent SDS‐PAGE. […] These findings led us to select GD32 as a lead compound for further investigation of CTSK's activity and location in different biological and medical samples. page 8: Figure S7. Cathepsin labeling in intact Jurkat cells that lack mature CTSK. Jurkat cells were treated with GD32 or GB123 (5 µM) in a culture medium for different durations up to 24 h, followed by cell lysis, and fluorescent SDS-PAGE analysis. […] The gel was analyzed by western blot with anti CTSK antibody. While pro-CTSK is detected, indicated by the black arrow, the mature CTSK is not detected. (1 picture or pasted object on this page, not shown here)

[1] = target: T1, active CTSK in intact cells (MG-63, U-2 OS, U-87 MG) (Homo sapiens, UniProt P43235); assay: Labeling of endogenous CTSK in intact cells, fluorescent SDS-PAGE; type: cell-based; conditions: probe 5 µM, fluorescent SDS PAGE method
T1 construct: ability to label endogenous CTSK activity in intact cells; endogenous in cells; host or cells: MG-63, U-2 OS, U-87 MG
T1 sequence (P43235 115-329): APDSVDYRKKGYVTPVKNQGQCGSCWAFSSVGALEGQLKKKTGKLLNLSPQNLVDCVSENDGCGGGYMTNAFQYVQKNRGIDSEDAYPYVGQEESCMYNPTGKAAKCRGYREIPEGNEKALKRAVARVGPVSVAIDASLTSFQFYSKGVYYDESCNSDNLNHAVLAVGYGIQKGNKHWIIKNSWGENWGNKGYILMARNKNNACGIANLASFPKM
Experimental: Figure 2 Labeling of endogenous CTSK in intact cells. a) U2‐OS cells were treated with DMSO or 5 µM of the indicated inhibitors in culture medium, for 2 h, then with indicated ABPs [5 µM] in a culture medium for indicated times, followed by cell lysis, SDS‐PAGE separation, and fluorescent scanning of the gel at 635/670 nm. An immunoblot of CTSK of the same gel is presented below. b) Intact MG63 cells were treated with GD32 5 µM in the culture media for indicated times, cell lysates were analyzed as in a. CTSK immunoblot is presented, pro and mature CTSK are indicated by arrows. c) MG63 cells and d) U87MG cells were treated with DMSO, or 5 µM of indicated inhibitors in culture medium for 2 h, followed by incubation with 5 µM of indicated probes for 5 h (GD32 and GD42) and 2 h (GB123), cell lysates were analyzed by fluorescent SDS PAGE as in a. […] Cells were incubated with 5 µM GD32 for 24 h in growth media at indicated pHs, prior to the cell lysis, cell lysates were analysed as in a. […] Input (I), immunoprecipitation (IP), and output (O) were separated by a 14% SDS‐PAGE and scanned for fluorescence. […] We further corroborated the band identity by western blot with an anti‐CTSK antibody, where the mature active CTSK is detected at the same location on the gel (Figure 2). page 6: MG63 Ex/Em 635/670 nm b) Figure S5. […] Cell lysates were analyzed as described above. […]

detection of binding to active CTSK [1] | Structure (SMILES) | fluorescent bands after labeling (Jurkat cells)
– | C#CCNC(=O)[C@H](CC(C)C)N[C@@H](c1ccc(-c2ccc(S(=O)(=O)CCNC(=O)CCCCC[N+]3=C(/C=C/C=C/C=C4/N(C)c5ccc(S(=O)(=O)O)cc5C4(C)C)C(C)(C)c4cc(S(=O)(=O)O)ccc43)cc2)cc1)C(F)(F)F [GD32] | no fluorescent bands were detected
could not be detected | CC(C)C[C@H](N[C@@H](c1ccc(-c2ccc(S(=O)(=O)CCNC(=O)CCCCC[N+]3=C(/C=C/C=C/C=C4/N(C)c5ccc(S(=O)(=O)O)cc5C4(C)C)C(C)(C)c4cc(S(=O)(=O)O)ccc43)cc2)cc1)C(F)(F)F)C(=O)NC1(C#N)CC1 [GD37] | –

— paper PMC11481179, “Development and Application of Reversible and Irreversible Covalent Probes for Human and Mouse Cathepsin‐K Activity Detection, Revealing Nuclear Activity” (Advanced Science, 2024)
